Data published in patent US20230338340A1, “Methods of Treating Cystic Fibrosis” (The Trustees of Dartmouth College, priority 2020, published 2023).

How the values were obtained:
CFTR [1] = test: Apical membrane abundance of CFTR in WT-CFBE cells (biotinylation, immunoblot); type: cell-based; conditions: 1 μM
Protocol: Apical membrane CFTR was normalized for CFTR abundance in cell lysate. N=2 (1h and 2 h) and n=3 (4h). Error bar S.E.M. *p<0.05 versus vehicle control (CTRL; 0.03% water).

CFTR [2] = test: CFTR activity in F508del HBE primary cells; type: cell-based; conditions: 1 μM, 4 hours
Dab2-DH = molecular target: T1, Dab2-DH (Homo sapiens, UniProt P98082); test: Dab2-DH FP competitive displacement experiments (F*-STA02 reporter); type: binding; conditions: text b140
T1 construct: Human-Dab2-DH, residues 31-191 (Uniprot: P98082); 10xHis (3C protease site) (N, cleaved yes); made in house; host or cells: E. coli BL21(DE3)RIL
T1 sequence (P98082 31-191): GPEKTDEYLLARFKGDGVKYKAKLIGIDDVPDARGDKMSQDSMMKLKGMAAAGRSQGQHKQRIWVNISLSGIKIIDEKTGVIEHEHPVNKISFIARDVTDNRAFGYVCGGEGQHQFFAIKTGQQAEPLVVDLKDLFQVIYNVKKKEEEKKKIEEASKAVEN

Human-Dab2-DH = molecular target: T2, Human-Dab2-DH (Homo sapiens, UniProt P98082); test: Dab2 FP competition assay via HTS; type: binding
T2 construct: fused on or other part: N-terminal 10xHis tag with a 3C protease site, cleaved off unless otherwise indicated
T2 sequence (P98082 33-178 limits assumed): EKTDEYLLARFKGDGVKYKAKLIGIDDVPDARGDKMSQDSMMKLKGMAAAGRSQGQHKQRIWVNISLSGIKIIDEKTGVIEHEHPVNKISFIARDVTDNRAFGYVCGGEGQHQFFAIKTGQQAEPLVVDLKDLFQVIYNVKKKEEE
Protocol: (§1) CALP and/or Dab2 inhibition assays were performed in biochemical “mix-and-measure” format in order to evaluate the effects on activation and inhibition of CALP and/or Dab2 by the compounds of the disclosure. Brief assay procedure is provided below. Unless otherwise specified, all of the compounds were obtained from commercial sources.
Dab-2 inhibitors were also identified by FP competition assays via HTS. Human-Dab2-DH, residues 31-191 (Uniprot: P98082), and trDab2-DH (residues 33-178) was subcloned into the pET16b vector via PCR utilizing the restriction enzyme sites of Xhol and BamHI. The construct was designed with a 3C protease cleavage site directly upstream and in-frame with the protein coding sequence. DNA was sequence verified. (0.1 mM) IPTG was used to induce protein expression in E. coli BL21(DE3)RIL cells, after reaching an O.D. of […]. […] Followed by 3C cleavage of the 10×His tag (unless otherwise indicated), and a second nickel affinity column to remove the 3C protease and excess tag. Dab2-DH was dialyzed into FP storage buffer (25 mM Tris pH 8.0, 150 mM NaCl, 0.1 mM TCEP, and 0.02% sodium azide). Fluorescent reporter peptides, TIVR*STA02 (TMR*-[…]) and TMR*STA03 (TMR*-[…]), were purchased commercially with the following sequence where TMR* denotes a N-terminal tetramethylrhodamine group coupled via an aminohexanoic acid linker. An unlabled positive control peptide STA02 ([…]) was also purchased commercially. Inhibitors of Dab2-DH were identified from a variety of sources with various protocols outlined below.
For screens conducted at the Novartis Institutes for BioMedical Research FAST Lab, single-dose HTS assays were performed with libraries comprising ˜52,000 compounds at 20 μM doses. Experiments were conducted as described for screens at the University of Pittsburgh Lab and Drug Discovery Institute, except that Dab2-DH, not trDab2-DH, was used as the protein source.
For screens conducted at the Broad Institute, compound transfers were done using a 384-well pin tool equipped with 100 nL hydrophobic surface coated pins. 100 nL of DMSO (negative control), STA02 (positive control), or library compounds were dispensed into 20 μL of protein (200 nM) and reporter (F*-STA02, 30 nM) mixture with 0.1 mg/ml mouse IgG and 0.5 mM Thesit. Final concentrations in the mixture were DMSO ([…]), STA02 (20 μM), and compounds (18 μM). Plates were incubated for 35-45 minutes before measuring polarization. Compounds were tested in duplicates on two separate plates. Positive and negative controls were included in each individual plate.
For experiments conducted at the University of Pittsburgh Lab and Drug Discovery Institute, single-dose HTS assays were performed with a library containing ˜220,000 compounds. On the day of screening, a master mix of equal parts trDab2-DH (900 nM) and TMP-STA03 (90 nM) was prepared. Compound plates containing assay ready 2 μL aliquots of a 1 mM stock solution in DMSO were thawed, reconstituted in FP buffer to a concentration of 30 μM in 3% DMSO, and five μL transferred to low volume assay plates using a Perkin Elmer MDT. Ten μL of master mix were added by a Microflo bulk liquid dispenser (Biotek, Winooski, VT) and processed as described in the general protocol above. Each plate contained 32 wells of positive (Dab2-DH+probe+DMSO) and negative (Dab2-DH+probe +10 μM STA03) controls. Plates were read at 1.5-h and 4-h on the Envision multilabel reader.

HBE primary cells = test: Airway surface liquid (ASL) volume after forskolin stimulus in HBE primary cells; type: cell-based; conditions: 20 μM, basolateral, 4 hr
Protocol: A functional test for CFTR activity is the determination of airway surface liquid (ASL) height, reflecting ion transport and associated osmotic recruitment of water, following activation of CFTR ion transport via forskolin stimulation. This functional test is directly related to one of the hallmarks of CF: the viscosity of airway mucus due to lack of anion transport.
Example 6 or Example 9 (20 μM each) or DMSO (CTR; 0.02%; […]) was added to the basolateral medium for 4 hr. Subsequently, forskolin (20 μM) and IBMX (1 mM) was added to the apical and basolateral medium. The test compounds were added for 30 min directly to the basolateral medium, and they were added in 10 μL medium to the apical side. The 10 μL volume was subtracted from the ASL volume (N=2-4/group).

wild-type CFTR = test: Cell-surface expression of wild-type CFTR in WT-CFBE cells; type: cell-based; conditions: 1 μM and 5 μM, no correctors or potentiators
Protocol: The effect of example 8 on cell-surface expression of wild-type CFTR was also tested in the absence of correctors or potentiators. Two doses (1 μM and 5 μM) of example 8 were applied to wild-type cystic fibrosis bronchial epithelial (WT-CFBE) cells and the abundance of WT-CFTR cells in the plasma membrane was quantified.

CAL PDZ [3] = molecular target: T3, CAL PDZ (Homo sapiens, UniProt Q9HD26); test: FP assay of peptide binding by CAL PDZ pre-labeled with compound (apparent KD)
T3 construct: Recombinant CAL PDZ was expressed and purified in E. coli as previously described; made in house; host or cells: E. coli
Description: Next, to probe the biochemical effect example 8 exerts on CAL PDZ-peptide binding, CAL PDZ was pre-labeled with example 8 and performed fluorescence polarization (FP) assays to determine apparent KD values for both unlabeled and labeled CAL PDZ.

CAL PDZC319A = molecular target: T4, CAL PDZC319A (Homo sapiens, UniProt Q9HD26, C327A); test: MALDI-TOF detection of adduct on point mutant CAL PDZ C319A; type: binding; conditions: only cysteine mutated to alanine
T4 construct: point mutant CAL PDZC319A (where the only cysteine residue is mutated to alanine)
Protocol: (§2) Following incubation of 50 μM protein with 75 μM of example 8, the molecular weight of the samples was determined by MALDI (unlabeled CALP molecular weight: 9464±15 Da; labeled CALP molecular weight: 9623±9 Da).

CAL PDZ [4] = molecular target: T3, CAL PDZ; test: MALDI-TOF detection of covalent modification of CAL PDZ; type: binding
Protocol: as §2

CAL PDZ [5] = molecular target: T3, CAL PDZ; test: CALP fluorescence polarization (FP) competition assay, HTS format with dose-response validation; type: binding; set-up: Inhibitory activity CALP at 100 μM: unit not given here
Protocol: as §1
CALP inhibitors were identified by fluorescence polarization (FP) competition assays in high-throughput screening (HTS) format. Recombinant CAL PDZ was expressed and purified in E. coli as previously described (Amacher et al., Acta Cyst. (2011) F67, 600-603), and dialyzed into FP storage buffer (25 mM Tris pH 8.5, 150 mM NaCl, 0.1 mM TCEP, and 0.02% sodium azide). A fluorescent reporter peptide, NPG32, was purchased commercially with the following sequence: F*-[…] (F* denotes a N-terminal fluorescein group coupled via an aminohexanoic acid linker). Initial single-dose HTS was performed with libraries comprising ˜52,000 compounds (FAST Lab—Novartis Institutes for BioMedical Research). First, 25 nL of 5 mM small-molecule was transferred to 1536-well Grenier plates. 3 μL of 3.708 μM CALP in FP buffer (FP storage buffer supplemented with […]) was added, and plates were incubated for 10 min. Next, 3 μL of 60 nM NPG32 (in FP buffer) was added. Final reaction volumes were 6 μL and contained 1.854 μM CALP, 30 nM NPG32, and 20.83 μM small-molecule. […] Plates were incubated for 30 minutes at room temperature and anisotropy was measured (480 nm excitation wavelength and 535 nm emission wavelength). […] Compounds were validated in triplicate using 8-point dilution series in half-log increments with two orthogonal assays: FRET and TMR-based FP assay. For the FRET assay, a cerulean-CALP fusion protein (Cer-CALP) was expressed and purified as previously described (Zhao et al., 2018). A fluorescent reporter peptide, PRC34, was purchased commercially with the following sequence: TMR*-[…] (TMR* denotes a N-terminal tetramethylrhodamine group coupled via an aminohexanoic acid linker). First, 40 nL of compound was transferred to the plates. 5 μL of 16.632 μM Cer-CALP was added, and plates were incubated for 30 min. Next, 5 μL of 16.632 μM PRC34 was added, and plates were incubated for 30 min. Final reaction volumes were 10 μL and contained 8.316 μM CALP, 8.316 μM […], and variable concentrations of small-molecule. Negative controls contained equivalent amounts of DMSO (0.4%), while positive controls contained 100 μM NPG30 (sequence: […]). Plates were incubated for 30 min, and emission at 475 nm and 575 nm was measured following excitation at 430 nm. TMR FP assays were conducted as described for the FITC-based assay with the following exceptions: TMR was used as the reporter peptide, the final CALP concentration was 11.952 μM, and the positive control used was 100 μM NPG30.

[6] = with VX-770, C-18, CFFT-002, Fsk and IBMX

C=C1c2cccc(O)c2C(O)=C2C(=O)[C@]3(O)C(O)=C(C(N)=O)C(=O)[C@@H](N(C)C)[C@@H]3[C@@H](O)[C@H]12 [Example 10, (4S,4aR,5S,5aR,12aR)-4-(dimethylamino)-1,5,10,11,12a-pentahydroxy-6-methylene-3,12-dioxo-3,4,4a,5,5a,6,12,12a-octahydrotetracene-2-carboxamide]
Abundance of CFTR (apical membrane) (CFTR [1]): increase in the abundance of CFTR | CFTR activity (CFTR [2]; [6]): significant enhancement of CFTR activity | Channel activity relative to absence of C-18 and CFFT-002 (CFTR [2]; [6]): approximately 2 fold | CFTR activity (CFTR [2]; with VX-770, Fsk and IBMX): significant enhancement of CFTR activity

CN1CCc2cccc3c2[C@@H]1Cc1ccc(O)c(O)c1-3.Cl [Example 12, (S)-6-methyl-5,6,6a,7-tetrahydro-4H-dibenzo[de,g]quinoline-10,11-diol hydrochloride]
Ki (Dab2-DH): 1.61 ± 0.74 µM | Inhibitory activity Dab2 at Cmax (Human-Dab2-DH; at Cmax, cells printed with %): ~−95%

COc1cc(O)c(C(=O)O)c(-c2cc(O)c(O)cc2C)c1 [Example 9, 3,4′,5′-trihydroxy-5-methoxy-2′-methyl-[1,1′-biphenyl]-2-carboxylic acid]
ASL volume generated in response to forskolin stimulus (HBE primary cells): increased the ASL volume | IC50 (Human-Dab2-DH): 0.037 µM

O=c1[nH]c2ccc(S(=O)(=O)Nc3ccc(O)c4ccccc34)cc2[nH]1 [Example 8, N-(4-hydroxynaphthalen-1-yl)-2-oxo-2,3-dihydro-1H-benzo[d]imidazole-5-sulfonamide]
Surface levels of WT-CFTR (wild-type CFTR): reduce surface levels of WT-CFTR | Attenuation in peptide binding vs unlabeled CAL PDZ (CAL PDZ [3]): ~4 fold | Adduct on CAL PDZ C319A (CAL PDZC319A): no adduct is detected | Adduct size / mass shift observed on CAL PDZ (CAL PDZ [4]): ~160 Da | Covalent modification of CAL PDZ (CAL PDZ [4]): covalently modify CAL PDZ | Inhibitory activity CALP at 100 μM (CAL PDZ [5]; at 100 μM): −72.16 | IC50 (CAL PDZ [5]; read-out: Inhibitory activity CALP IC50): 4.57 µM
